The results in this text go back to ChEMBL document CHEMBL4130465, “Berchemiosides A-C, 2-Acetoxy-ω-phenylpentaene Fatty Acid Triglycosides from the Unripe Fruits of Berchemia berchemiifolia” (J Nat Prod, 2017).

Data set [1] addresses Xanthine dehydrogenase/oxidase (Homo sapiens, UniProt P47989). In words: Inhibition of xanthine oxidase (unknown origin) using xanthine as substrate pretreated for 10 mins followed by substrate addition measured every 2 mins for 6 mins. The note with it: for inhibition (INH): human, 0.1 h.
Data set [2] has as its system HCT-116. The data set is described as follows: Cytotoxicity against human HCT116 cells after 48 hrs by MTT assay. In kind it is functional, cell-based. The note with it: HCT-116, 48 h. For orientation: Tetrazolium assays rely on reduction of a dye to a coloured formazan, in cell work by metabolically active cells.
The subject of data set [3] is HCT-116. The data set is described as follows: Cytotoxicity against human HCT116 cells up to 100 uM after 48 hrs by MTT assay. Format: functional, cell-based.

Molecules are shown by their SMILES. Activity calls are given as the source filed them. The calls are words filed in the database; no cut-off is given here.

Chain of Xanthine dehydrogenase/oxidase (P47989 whole entry): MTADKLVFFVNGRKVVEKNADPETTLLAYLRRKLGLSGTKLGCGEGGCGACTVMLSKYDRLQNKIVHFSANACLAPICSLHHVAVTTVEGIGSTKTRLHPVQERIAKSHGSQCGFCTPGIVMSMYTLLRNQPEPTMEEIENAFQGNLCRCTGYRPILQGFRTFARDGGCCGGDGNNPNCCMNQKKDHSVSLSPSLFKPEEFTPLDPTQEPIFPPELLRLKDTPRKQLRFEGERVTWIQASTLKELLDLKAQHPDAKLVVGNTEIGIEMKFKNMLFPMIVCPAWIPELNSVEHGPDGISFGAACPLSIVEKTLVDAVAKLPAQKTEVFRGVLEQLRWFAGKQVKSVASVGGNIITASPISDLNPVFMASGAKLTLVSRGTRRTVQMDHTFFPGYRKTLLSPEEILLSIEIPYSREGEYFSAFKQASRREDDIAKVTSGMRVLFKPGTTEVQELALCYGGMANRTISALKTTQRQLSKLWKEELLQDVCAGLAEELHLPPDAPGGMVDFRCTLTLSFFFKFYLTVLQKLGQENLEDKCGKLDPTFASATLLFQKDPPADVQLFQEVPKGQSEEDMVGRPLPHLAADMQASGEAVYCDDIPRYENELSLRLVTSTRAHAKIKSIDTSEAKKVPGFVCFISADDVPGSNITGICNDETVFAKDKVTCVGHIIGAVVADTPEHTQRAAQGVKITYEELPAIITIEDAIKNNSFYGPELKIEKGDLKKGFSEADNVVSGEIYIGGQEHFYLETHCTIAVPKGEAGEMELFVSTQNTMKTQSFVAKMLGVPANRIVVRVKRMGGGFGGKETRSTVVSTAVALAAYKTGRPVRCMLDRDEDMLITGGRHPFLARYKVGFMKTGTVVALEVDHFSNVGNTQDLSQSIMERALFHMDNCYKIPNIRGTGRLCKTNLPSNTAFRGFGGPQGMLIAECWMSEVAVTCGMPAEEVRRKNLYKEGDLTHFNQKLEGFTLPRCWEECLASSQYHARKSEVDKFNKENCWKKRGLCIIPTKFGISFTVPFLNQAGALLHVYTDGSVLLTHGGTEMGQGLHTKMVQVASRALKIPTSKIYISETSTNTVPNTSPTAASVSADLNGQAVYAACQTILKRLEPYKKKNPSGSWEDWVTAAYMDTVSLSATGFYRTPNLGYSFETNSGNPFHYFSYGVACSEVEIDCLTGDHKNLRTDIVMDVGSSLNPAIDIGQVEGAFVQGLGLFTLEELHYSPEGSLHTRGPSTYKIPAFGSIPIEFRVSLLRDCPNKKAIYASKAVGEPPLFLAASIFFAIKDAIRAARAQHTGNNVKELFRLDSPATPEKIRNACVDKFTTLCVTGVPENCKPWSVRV

In general, IC50 refers to the concentration at which inhibition is half-maximal. Take `O=C1C[C@H](c2ccc(O)cc2)Oc2cc(O)cc(O[C@@H]3O[C@H](CO)[C@@H](O)[C@H](O)[C@H]3O[C@@H]3O[C@H](CO)[C@@H](O)[C@H](O)[C@H]3O)c21`: the 50% inhibitory concentration (IC50) in data set [1] amounted to 95.4 µM. Turning to `O=c1c(O[C@@H]2O[C@H](CO)[C@@H](O)[C@H](O)[C@H]2O[C@@H]2O[C@H](CO)[C@@H](O)[C@H](O)[C@H]2O)c(-c2ccc(O)c(O)c2)oc2cc(O)cc(O)c12`, the “inhibition (INH)” value in data set [1] is “Not Active”.

For `CC(=O)O[C@@]12CO[C@@H]1C[C@H](O)[C@@]1(C)C(=O)[C@H](O)C3=C(C)[C@@H](OC(=O)[C@H](O)[C@@H](NC(=O)OC(C)(C)C)c4ccccc4)C[C@@](O)([C@@H](OC(=O)c4ccccc4)[C@H]21)C3(C)C` [DOCETAXEL ANHYDROUS], half-maximal inhibition in the data set on HCT-116 [2] (IC50) required 0.13 µM.

For the compound `O=C1C[C@H](c2ccc(O)c(O)c2)Oc2cc(O)cc(O[C@@H]3O[C@H](CO)[C@@H](O)[C@H](O)[C@H]3O[C@@H]3O[C@H](CO)[C@@H](O)[C@H](O)[C@H]3O)c21`, in data set [1], the “inhibition (INH)” value is listed as “Not Active”. On the same count and under the same terms, then `COc1cc2oc(-c3ccc(O)c(O)c3)cc(=O)c2c(O)c1[C@@H]1O[C@H](CO)[C@@H](O)[C@H](O)[C@H]1O`, with “Not Active”.

In the case of `CC(=O)O[C@H](CCC/C=C/C=C/C=C/C=C/C=C/c1ccc(O[C@@H]2O[C@H](CO[C@@H]3O[C@@H](C)[C@H](O)[C@@H](O[C@@H]4O[C@H](COC(=O)/C=C/c5ccccc5)[C@@H](O)[C@H](O)[C@H]4O)[C@H]3O)[C@@H](O)[C@H](O)[C@H]2O)cc1)C(=O)O`, the result in the data set on HCT-116 [3] was inactive. Consider `O=C1C[C@@H](c2ccc(O)c(O)c2)Oc2cc(O)cc(O[C@@H]3O[C@H](CO)[C@@H](O)[C@H](O)[C@H]3O[C@@H]3O[C@H](CO)[C@@H](O)[C@H](O)[C@H]3O)c21`, for which the “inhibition (INH)” value in data set [1] is listed as “Not Active”.

In the case of `COc1cc2oc(-c3ccc(O)cc3)cc(=O)c2c(O)c1[C@@H]1O[C@H](CO)[C@@H](O)[C@H](O)[C@H]1O` [SWERTISIN], in data set [1], the “inhibition (INH)” value is recorded as “Not Active”. Consider `CC(=O)O[C@H](CCC/C=C/C=C/C=C\C=C/C=C/c1ccc(O[C@@H]2O[C@H](CO[C@@H]3O[C@@H](C)[C@H](O)[C@@H](O[C@@H]4O[C@H](CO)[C@@H](O)[C@H](O)[C@H]4O)[C@H]3O)[C@@H](O)[C@H](O)[C@H]2O)cc1)C(=O)O`, for which, in the data set on HCT-116 [3], the result was inactive. Same read-out and setting: then `C[C@@H]1O[C@@H](OC[C@H]2O[C@@H](Oc3ccc(C=O)cc3)[C@H](O)[C@@H](O)[C@@H]2O)[C@H](O)[C@H](O[C@@H]2O[C@H](COC(=O)/C=C/c3ccccc3)[C@@H](O)[C@H](O)[C@H]2O)[C@H]1O`, with “inactive”; and `CC(=O)O[C@H](CCC/C=C/C=C/C=C/C=C/C=C/c1ccc(O[C@@H]2O[C@H](CO[C@@H]3O[C@@H](C)[C@H](O)[C@@H](O[C@@H]4O[C@H](COC(=O)/C=C/C=C/c5ccccc5)[C@@H](O)[C@H](O)[C@H]4O)[C@H]3O)[C@@H](O)[C@H](O)[C@H]2O)cc1)C(=O)O`, with “inactive”.
